Earlier results as cited in patent US20130064804A1, “BIO-REPLENISHMENT (BioRep) FOR IMPROVING SLEEP ARCHITECTURE” (Naidu LP, priority 2011, published 2013).

Assays:
[1] = in vivo
[2] = typical dose (1 to 3 mg)

Structure (SMILES): C[S+](CC[C@H](N)C(=O)O)C[C@H]1O[C@@H](n2cnc3c(N)ncnc32)[C@H](O)[C@@H]1O (some centres unmarked) [SAMe, S-adenosylmethionine]
- first-pass: fraction metabolized in the liver [1]: approximately 50%

Structure (SMILES): COc1ccc2[nH]cc(CCNC(C)=O)c2c1 [melatonin, N-acetyl-5-methoxytryptamine]
- elevation of blood melatonin levels above normal [2]: 1 to 20 times
